The values that follow come from the METLIN SMRT retention time set (Domingo-Almenara et al. 2019).

A short description of this data set: gradient 5% acetonitrile 3 min, to 50% in 2 min, to 85% in 15 min, held 3 min, 100 µL/min. The following applies: column: Zorbax Extend-C18 2.1 x 50 mm; eluents: water / acetonitrile, 0.1% formic acid. In short, it runs like this:
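Using water and acetonitrile that each contained 0.1% formic acid, mixtures of ~100 pure standards were separated at 100 μL/min on a Zorbax Extend-C18 column (2.1 × 50 mm, 1.8 μm). The HPLC fed a quadrupole time-of-flight mass spectrometer working in positive and negative ionization mode, with dead and dwell volumes of 40 μL and 900 μL. Data were acquired over 3 months. Retention time was read from computationally picked adduct peaks after manual inspection of each.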
On to `Clc1ccc(-c2nnc(-c3cccnc3N3CCN(c4ccccn4)CC3)o2)cc1`, for which the RP-LC retention time stood at 710 s.

The compound `CCC(=O)NCc1nc2c(n1CC)CN(S(=O)(=O)c1cc(C)ccc1C)CC2` returned an RP-LC retention time of 590 s. In turn, `CC1(c2ccc3ccccc3c2)CCC(=O)O1` (centres undefined) displayed an RP-LC retention time of 970 s. On to `CCc1ccc(C2=C(C)C(N3CCCN(C(=O)c4ccsc4)CC3)=NS2(=O)=O)cc1`, for which the RP-LC retention time worked out at 859 s. Under `O=C(C1CCC1)N1CCCC(OCc2nc(-c3ccccc3)no2)C1` (centres undefined) stands 791 s.

Consider `O=C(NCc1ccc2c(c1)OCO2)c1c(O)c2cccnc2[nH]c1=O`, for which the RP-LC retention time came to 889 s. As for `Cc1cccc(-c2noc(-c3nn(CC(=O)NC4CC4)c4ccccc34)n2)c1`, the figure is 1040 s; as for `COc1ccc2c(c1)CCc1sc(NC(=O)c3cc(OC)c(OC)c(OC)c3)nc1-2`, 1080 s; as for `O=C(NCc1ccc2c(c1)OCO2)C1Cn2cccc2C(=O)N1Cc1cccnc1` (centres undefined), 594 s. As for `CCC(C)NC(=O)c1c(O)c2sccc2n(Cc2ccccc2)c1=O` (centres undefined), the figure is 1310 s.

Compound `CCn1cc(S(=O)(=O)N2CCC(c3nn(C)c(=O)n3C3CCCC3)CC2)cn1` came in with an RP-LC retention time of 717 s. For `CN(C)c1ncncc1N1CCC(C(=O)NCc2ccc(Cl)cc2)CC1`, the RP-LC retention time stood at 643 s. As for `CC1CCN(S(=O)(=O)c2ccc(-c3nnc(C(=O)NCCN4CCCCCC4)o3)cc2)CC1`, the figure is 726 s. Under `Cc1cc(OCC(=O)Nc2cccc(Cl)c2C)nc(N2CCN(c3ccccc3)CC2)n1` stands 949 s; under `Cc1ccc(Cn2nc3c(S(=O)(=O)N4CCCCCC4)cccn3c2=O)cc1`, 1000 s. Under `O=C(Nc1ccc2c(c1)OCCO2)C(=O)c1cn(CC(=O)N2CCCCC2)c2ccccc12` stands 1010 s. With `O=[N+]([O-])c1cccnc1Oc1cc(Cl)c(Cl)cc1Cl`, the RP-LC retention time is 1220 s. As for `CSc1nc2ccc3nc(NC(=O)c4cnccn4)sc3c2s1`, the figure is 927 s.

The compound `Cc1nc2cc(-c3noc(-c4ccc(C)c(F)c4)n3)ccc2o1` showed an RP-LC retention time of 1210 s. In turn, `C[C@@H]1CCO[C@H]2Cn3cc(C(=O)NCc4ccc(F)cc4F)c(=O)c(O)c3C(=O)N12` had an RP-LC retention time of 808 s. As for `O=C(NCCC1=CCCCC1)c1cccc(CN2C(=O)C3CCCN3C(=O)c3ccccc32)c1` (centres undefined), the figure is 890 s. In the case of `O=C1COc2ccc(S(=O)(=O)N3CCC(C(=O)Nc4ccc5c(c4)OCO5)CC3)cc2N1`, the RP-LC retention time amounted to 715 s. With `Cc1ccc(C(=O)N2CCCC(COc3ccc(C(=O)NC(C)C)cc3)C2)cc1F` (centres undefined), the RP-LC retention time came to 896 s. As to `CCn1cc(-c2ccc(C)cc2)cc1C(=O)N1CCC(C)CC1`, the RP-LC retention time is 1230 s.

The compound `COCCOC(=O)c1c(C)oc2ccc(OC(=O)c3cccs3)cc12` gave an RP-LC retention time of 1020 s. The compound `Fc1ccc(-c2csc(Nc3ccccn3)n2)cc1` came in with an RP-LC retention time of 896 s. Under `Cc1cc(C)n(Cc2ccc(C(=O)N3CCCN(c4cc(=O)n(C(C)C)c(=O)n4C(C)C)CC3)o2)n1` stands 768 s.

`CCC(C)(C)NC(=O)C1CCCN1S(=O)(=O)c1cc2c(cc1C)NC(=O)CO2` (centres undefined) had an RP-LC retention time of 745 s. As for `CCn1cc(C)c(C(=O)O)c1CC(=O)Nc1cc(C)ccc1C`, the figure is 866 s; as for `CCN1CCN(S(=O)(=O)c2ccc(-c3cc(C(F)(F)F)on3)o2)CC1`, 691 s. Take `CCn1nnc2ccc(-c3noc(-c4ccc(C#N)cc4)n3)cc21`: the RP-LC retention time is 971 s. The compound `Cc1ccc(S(=O)(=O)N2CC(Cc3nncn3C3CCCC3)C2)cc1F` gave an RP-LC retention time of 747 s.

Take `CCNc1cc(N2CCC(CCC(=O)NCc3ccc(F)cc3)CC2)ncn1`: the RP-LC retention time turned out to be 574 s. As for `COc1ccc(C(O)CN2CCN(c3ccc(C)cc3)CC2)cc1OC` (centres undefined), the figure is 644 s; as for `O=C(C1CCCN(c2ncnc3c2nc2n3CCCCC2)C1)N(Cc1ccco1)C1CCCC1` (centres undefined), 950 s.

`Cc1nc(-c2ccc(S(=O)(=O)Nc3cccnc3)cc2)co1`: the RP-LC retention time amounted to 640 s. With `O=C(CCNc1cnc2cnccn12)NCc1cccc(C(F)(F)F)c1`, the RP-LC retention time came out at 608 s.

On to `O=C(Cn1cc(-c2nc(-c3ccc(Cl)cc3)no2)ccc1=O)Nc1ccc2c(c1)OCO2`, for which the RP-LC retention time came out at 986 s.

With `CCN1CCN(c2cc(-c3nc(-c4ccccc4)no3)c3ccccc3n2)CC1`, the RP-LC retention time was found to be 822 s. Under `COc1cccc(NC(=O)C2CCCN2S(=O)(=O)c2cc3c(cc2C)NC(=O)CO3)c1` (centres undefined) stands 722 s; under `COc1ccc(CNC(=O)C2CCN(c3cc(N4CCSCC4)ncn3)CC2)cc1`, 656 s. As for `COc1ncccc1CN(C)C(=O)COc1ccccc1`, the figure is 568 s.

Consider `COC(=O)c1cccc(C(=O)Nc2cccc(Cl)c2C)n1`, for which the RP-LC retention time was found to be 976 s. As for `CC1=C(c2ccc(C)cc2)S(=O)(=O)N=C1N1CCCN(C(=O)NCCC(C)C)CC1`, the figure is 895 s; as for `COc1ccc(C2(CNS(=O)(=O)c3ccc(OC)c(Cl)c3)CCOCC2)cc1`, 842 s. Under `COc1ccc(-c2nc3cnc(Br)cn3c2Nc2ccc3c(c2)OCO3)cc1` stands 926 s; under `COc1ccc(-c2noc(Cn3ccn4nc(-c5ccccc5)cc4c3=O)n2)cc1`, 1030 s; under `CCc1noc(NC(C)=O)c1-c1ccc(C)c(S(=O)(=O)NCCC(C)C)c1`, 856 s. `COc1ccc(C2CC(=O)c3cnc(N4CCN(c5ccccn5)CC4)nc3C2)cc1OC` (centres undefined) came in with an RP-LC retention time of 633 s. `CC1CN=C2C=C(N3CCN(C(=O)Nc4ccccc4Cl)CC3)N=CN21` (centres undefined) showed an RP-LC retention time of 618 s.

For `CCn1nc(C)cc1C(=O)N(Cc1ccccn1)c1nc2c(OC)ccc(OC)c2s1`, the RP-LC retention time was 883 s. Under `CC(C)S(=O)(=O)c1cc2c(cc1NC(=O)c1cccc(F)c1)n(C)c(=O)n2C` stands 846 s. Take `Cc1cccc(NC(=O)N2CCC3(CC2)N=C(c2ccccc2)C(=O)N3)c1`: the RP-LC retention time was 806 s.

Consider `CN(C)c1ccc2ncc(=O)n(C)c2n1`, for which the RP-LC retention time stood at 728 s. As for `Cc1ccc(-c2nc(-c3cccc(-c4ccn[nH]4)c3)no2)c(C)c1`, the RP-LC retention time was determined as 1150 s. Compound `COc1cccc(NC(=O)Nc2ccc(Cl)c(N3CCCS3(=O)=O)c2)c1OC` gave an RP-LC retention time of 780 s. Under `COc1cccc(NC(=O)Cn2nc3c(Oc4cc(C)cc(C)c4)nccn3c2=O)c1` stands 904 s; under `Cc1ccc(C)c(NC(=O)N2C[C@@H](F)C[C@H]2C(=O)N2CCc3ccccc3C2)c1`, 836 s; under `COc1cc(C(=O)N(Cc2ccc(N(C)C)cc2)C2CCS(=O)(=O)C2)cc(OC)c1OC` (centres undefined), 634 s. Under `O=C(O)c1nnn(-c2ccccc2)c1-c1ccccn1` stands 657 s; under `Cc1sc(NC(=O)C(F)(F)F)nc1-c1ccc2c(c1)NC(=O)C(C)O2` (centres undefined), 840 s; under `CCOc1ccc(NC(=O)NCCC2CCN(S(=O)(=O)c3ccccc3)CC2)cc1`, 836 s. In turn, `CC1CCN(S(=O)(=O)c2ccc3c(ccn3CCC(=O)N3CCN(c4ccccn4)CC3)c2)CC1` registered an RP-LC retention time of 728 s. Under `O=C(O)CCC(=O)Nc1cccc(C(F)(F)F)c1` stands 674 s. Under `Cc1cc(C)n(CCNC(=O)C2(c3cccs3)CCCC2)n1` stands 736 s; under `Cc1cc(Cl)ccc1NC(=O)C1CCCN(c2nnc(C)c3c(C)n(-c4ccccc4)nc23)C1` (centres undefined), 803 s; under `O=C(NCc1ccc(F)cc1Cl)C1CCCN(c2cnc3nccnc3c2)C1` (centres undefined), 748 s.

Compound `Cn1c(CCNC(=O)c2ccc(Cl)s2)nc2cccnc21` showed an RP-LC retention time of 626 s. As for `CCn1nccc1-c1cccc(-c2noc(-c3cccc(NC(=O)c4ccco4)c3)n2)c1`, the figure is 1080 s.

For the compound `O=C(Nc1c(F)c(F)c(F)c(F)c1F)c1cc2sccc2n1Cc1ccc(F)cc1`, the RP-LC retention time stood at 1180 s.

On to `Cc1ccc(C)c(NC(=O)N2CC(c3nc(C)no3)C3(CCOCC3)C2)c1` (centres undefined), for which the RP-LC retention time stood at 693 s. As for `O=C(CCc1nc2ccccc2s1)NCC12CCCC=C1N(CC1CC1)C(=O)CC2` (centres undefined), the figure is 863 s; as for `N#Cc1ccc(C(=O)N2CCN(c3nc(CN4CCCCC4)cs3)CC2)cc1`, 614 s; as for `Cn1nc(C(=O)Nc2ccc3c(c2)C(=O)N2CCC[C@H]2C(=O)N3)c2ccccc21`, 714 s. Compound `CCN1CCCC1CN(CC(=O)N1CCNCC1)S(=O)(=O)c1c(C)cc(C)cc1C` (centres undefined) returned an RP-LC retention time of 588 s. Compound `CC1(c2ccccc2)NN=C2Oc3ccccc3N21` (centres undefined) returned an RP-LC retention time of 812 s. `CCCC(=O)Nc1cc2c(cc1N1CCC(C)CC1)n(C)c(=O)c(=O)n2C` gave an RP-LC retention time of 820 s. `Cc1cc2c(c(=O)n(-c3ccc(F)cc3)c(=O)n2CC(=O)Nc2cccc(C#N)c2)n1C` displayed an RP-LC retention time of 824 s.

For the compound `CC(C)Cc1nn(-c2ccccc2)cc1CN1CC(=O)NCC12CCCC2`, the RP-LC retention time was found to be 720 s.
